Measurements reported in PMC7251097, “Aspartate/asparagine-β-hydroxylase: a high-throughput mass spectrometric assay for discovery of small molecule inhibitors” (Scientific Reports, 2020).
Counter-ions that a name gives are not always drawn. Like-named read-outs stand apart in the source and are kept apart here.

Target: T1, His6-AspH315–758 (human aspartate/asparagine-β-hydroxylase, AspH) (Homo sapiens, UniProt Q12797)
T1 construct: N-Terminally His6-tagged human AspH315–758 (His6-AspH315–758) was produced in E. coli BL21 (DE3) cells; made in house; host or cells: E. coli BL21 (DE3), pET-28a(+) vector
T1 sequence (Q12797 315-758): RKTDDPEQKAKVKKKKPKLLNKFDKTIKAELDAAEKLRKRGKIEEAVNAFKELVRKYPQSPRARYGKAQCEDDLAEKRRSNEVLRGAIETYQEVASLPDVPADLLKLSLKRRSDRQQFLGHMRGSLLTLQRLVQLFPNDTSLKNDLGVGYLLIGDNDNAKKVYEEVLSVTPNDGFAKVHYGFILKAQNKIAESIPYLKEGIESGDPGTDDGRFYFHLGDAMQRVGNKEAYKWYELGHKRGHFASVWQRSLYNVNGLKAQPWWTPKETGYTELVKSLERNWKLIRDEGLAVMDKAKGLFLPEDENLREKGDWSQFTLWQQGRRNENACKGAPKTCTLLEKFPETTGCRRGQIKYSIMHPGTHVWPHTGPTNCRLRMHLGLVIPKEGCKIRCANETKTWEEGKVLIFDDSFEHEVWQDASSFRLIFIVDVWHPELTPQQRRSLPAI
Test: SPE-MS AspH inhibition assay (LOPAC screen at fixed 20 μM and IC50 dose-response), hydroxylation of cyclic peptide hFX-CP101–119
Format: biochemical
Conditions: for Plate 1 (% inhibition): plate 1, normalised to DMSO and 2,4-PDCA controls

[1] = LOPAC Plate 4, compound at 20 uM, substrate conversion
[2] = LOPAC Plate 4, compound at 20 uM, read-out: % inhibition
[3] = LOPAC compound at 20uM, plate 3, conversion of substrate peptide
[4] = read-out: Plate 2 (% inhibition)
[5] = LOPAC Plate 4, compound at 20 uM
[6] = LOPAC compound at fixed 20 uM, substrate conversion, plate 1

## NC[C@@H]1O[C@H](O[C@H]2[C@@H](O)[C@H](O[C@@H]3[C@@H](O)[C@H](N)C[C@H](N)[C@H]3O[C@H]3O[C@H](CO)[C@@H](O)[C@H](O)[C@H]3N)O[C@@H]2CO)[C@H](N)[C@@H](O)[C@@H]1O [Paromomycin sulfate]
[1]
  % conversion: 37.25%
[2]
  inhibition at 20 µM: -2.28%

## N=C(N)c1ccc(OCCCCCOc2ccc(C(=N)N)cc2)cc1 [Pentamidine isethionate]
[3]
  Plate 3 (% conversion): 37.75%

## C[N+]1(CCCCC[N+]2(C)CCCC2)CCCC1.O=C([O-])C(O)C(O)C(=O)O.O=C([O-])C(O)C(O)C(=O)O [Pentolinium di[L(+)-tartrate]]
[3]
  Plate 3 (% conversion): 9.60%

## CCCN1C[C@H](CSC)C[C@@H]2c3cccc4[nH]cc(c34)C[C@H]21 [Pergolide methanesulfonate]
[1]
  % conversion: 40.48%
[2]
  inhibition at 20 µM: -11.8%

## OCCN1CCN(CCCN2c3ccccc3Sc3ccc(Cl)cc32)CC1 [Perphenazine]
[3]
  Plate 3 (% conversion): 48.99%

## NCC(CP(=O)(O)O)c1ccc(Cl)cc1 (stereo not drawn) [Phaclofen]
  % conversion: 34.58%
20 µM
  % inhibition: 5.54%

## NC(=Nc1ccccc1)NC(=O)c1nc(Cl)c(N)nc1N [Phenamil methanesulfonate]
[1]
  % conversion: 39.99%
[2]
  inhibition at 20 µM: -10.3%

## NNCCc1ccccc1 [Phenelzine sulfate]
  inhibition at 20 µM: -1.74%

## CN(C)CCC(c1ccccc1)c1ccccn1 (stereo not drawn) [Pheniramine maleate]
[1]
  % conversion: 37.25%
[2]
  inhibition at 20 µM: -2.28%

## CN1CC[C@@]2(C)c3cc(OC(=O)Nc4ccccc4)ccc3N(C)[C@@H]12 [Phenserine]
  Plate 2 (% conversion): 38.49%
[4]
  inhibition at 20 µM: -7.56%

## Cc1ccc(N(CC2=NCCN2)c2cccc(O)c2)cc1 [Phentolamine mesylate]
[1]
  % conversion: 38.87%
[2]
  inhibition at 20 µM: -7.04%

## CCCCC1C(=O)N(c2ccccc2)N(c2ccccc2)C1=O [Phenylbutazone]
[1]
  % conversion: 37.63%
[2]
  inhibition at 20 µM: -3.41%

## CNC[C@H](O)c1cccc(O)c1 [Phenylephrine hydrochloride]
[3]
  Plate 3 (% conversion): 35.74%

## O=C(CCc1ccc(O)cc1)c1c(O)cc(O)cc1O [Phloretin]
[1]
  % conversion: 29.69%

## CCCCCCCCCCCCCC(=O)O[C@@H]1[C@@H](C)[C@@]2(O)[C@@H](C=C(CO)C[C@]3(O)C(=O)C(C)=C[C@@H]23)[C@@H]2C(C)(C)[C@]12OC(C)=O [Phorbol 12-myristate 13-acetate]
  % conversion: 39.27%

## O=C(O)CP(=O)(O)O [Phosphonoacetic acid]
[1]
  % conversion: 17.53%
[2]
  inhibition at 20 µM: 55.5%

## CC(C)C[C@H](NP(=O)([O-])O[C@H]1O[C@H](C)[C@@H](O)[C@H](O)[C@@H]1O)C(=O)N[C@@H](Cc1c[nH]c2ccccc12)C(=O)[O-].[Na+].[Na+] [Phosphoramidon disodium]
  % conversion: 33.86%

## Oc1cc(O)cc(/C=C/c2ccc(O)c(O)c2)c1 [Piceatannol, reference compound]
AspH activity, fixed compound concentration 20 μM, initial LOPAC screen, 0.5%v/v DMSO, read-out: Inhibition at 20 µM [%]
  inhibition at 20 µM: 99.9%
[3]
  Plate 3 (% conversion): 2.48%

## COc1ccc(C(=O)NCc2cccnc2)cc1C(=O)NCc1cccnc1 [Picotamide]
[1]
  % conversion: 30.17%

## NS(=O)(=O)C#Cc1ccccc1 [Pifithrin-mu]
[1]
  % conversion: 31.04%

## CC(N/C(=N\C#N)Nc1ccncc1)C(C)(C)C (stereo not drawn) [Pinacidil]
[1]
  % conversion: 37.72%

## COc1cc(/C=C/C(=O)N2CCC=CC2=O)cc(OC)c1OC [Piperlongumine]
  Plate 3 (% conversion): 35.88%

## Cc1nc2ccccn2c(=O)c1CCN1CCC(C(=O)c2ccc(F)cc2)CC1 [Pirenperone]
[1]
  % conversion: 26.88%

## CN1CCN(CC(=O)N2c3ccccc3C(=O)Nc3cccnc32)CC1 [Pirenzepine dihydrochloride]
[1]
  % conversion: 38.08%
[2]
  inhibition at 20 µM: -4.73%

## Cc1ccc(=O)n(-c2ccccc2)c1 [Pirfenidone]
[3]
  Plate 3 (% conversion): 40.30%

## O=C(O)/C=C\C(=O)O.c1cnc(N2CCN(Cc3ccc4c(c3)OCO4)CC2)nc1 [Piribedil maleate]
[5]
  % inhibition: -4.83%
[1]
  % conversion: 38.12%

## CN1C(C(=O)Nc2ccccn2)=C(O)c2ccccc2S1(=O)=O [Piroxicam]
[3]
  Plate 3 (% conversion): 39.26%

## COc1cc([C@@H]2c3cc4c(cc3[C@H](O)[C@H]3COC(=O)[C@H]23)OCO4)cc(OC)c1OC [Podophyllotoxin]
  Plate 3 (% conversion): 35.15%

## CCCN[C@H]1CCc2nc(N)sc2C1 [Pramipexole dihydrochloride]
[1]
  % conversion: 39.77%

## O=C(C1CCCCC1)N1CC(=O)N2CCc3ccccc3C2C1 (stereo not drawn) [Praziquantel]
[3]
  Plate 3 (% conversion): 41.06%

## COc1cc2nc(N3CCN(C(=O)c4ccco4)CC3)nc(N)c2cc1OC [Prazosin hydrochloride]
[1]
  % conversion: 34.08%

## CC(=O)[C@H]1CC[C@H]2[C@@H]3CC=C4C[C@@H](OS(=O)(=O)[O-])CC[C@]4(C)[C@H]3CC[C@]12C.[Na+] [Pregnenolone sulfate sodium]
  % conversion: 34.01%
20 µM
  % inhibition: 7.19%

## CCCNC(C)C(=O)Nc1ccccc1C (stereo not drawn) [Prilocaine hydrochloride]
[1]
  % conversion: 24.92%

## CCC1(c2ccccc2)C(=O)NCNC1=O [Primidone]
[1]
  % conversion: 31.08%

## CCN(CC)CCNC(=O)c1ccc(N)cc1 [Procainamide hydrochloride]
[1]
  % conversion: 38.98%
[2]
  inhibition at 20 µM: -7.36%

## CCN(CC)CCOC(=O)c1ccc(N)cc1 [Procaine hydrochloride]
[1]
  % conversion: 34.46%
[2]
  inhibition at 20 µM: 5.88%

## CN1CCN(CCCN2c3ccccc3Sc3ccc(Cl)cc32)CC1 [Prochlorperazine dimaleate]
[1]
  % conversion: 48.18%

## CC(=O)[C@H]1CC[C@H]2[C@@H]3CCC4=CC(=O)CC[C@]4(C)[C@H]3CC[C@]12C [Progesterone]
[3]
  Plate 3 (% conversion): 43.81%

## CCCN(CCC)C(=O)C(CCC(=O)O)NC(=O)c1ccccc1 (stereo not drawn) [Proglumide]
[3]
  Plate 3 (% conversion): 27.88%

## CN(C)CCCN1c2ccccc2Sc2ccccc21 [Promazine hydrochloride]
[1]
  % conversion: 39.62%
[2]
  inhibition at 20 µM: -9.23%

## CC(CN1c2ccccc2Sc2ccccc21)N(C)C (stereo not drawn) [Promethazine hydrochloride]
[3]
  Plate 3 (% conversion): 42.09%

## CC(C)[N+](C)(CCOC(=O)C1c2ccccc2Oc2ccccc21)C(C)C [Propantheline bromide]
[1]
  % conversion: 33.19%

## CCC(=O)c1ccc2c(c1)N(CCCN(C)C)c1ccccc1S2 [Propionylpromazine hydrochloride]
[1]
  % conversion: 44.67%
[2]
  inhibition at 20 µM: -24%

## CC(C)c1cccc(C(C)C)c1O [Propofol]
  Plate 2 (% conversion): 38.08%
[4]
  inhibition at 20 µM: -6.34%

## C=CC1=C(C)c2cc3[nH]c(cc4nc(cc5[nH]c(cc1n2)c(C)c5CCC(=O)O)C(CCC(=O)O)=C4C)c(C)c3C=C [Protoporphyrin IX disodium]
[1]
  % conversion: 20.78%
[2]
  inhibition at 20 µM: 46%

## CNCCCC1c2ccccc2C=Cc2ccccc21 [Protriptyline hydrochloride]
[1]
  % conversion: 29.36%
[2]
  inhibition at 20 µM: 20.8%

## O=c1ccc2c(OCCCCc3ccccc3)c3ccoc3cc2o1 [Psora-4]
LOPAC compound at fixed 20 uM
  Plate 1 (% inhibition): 4.97%
[6]
  Plate 1 (% conversion): 34.20%

## NCCCCN [Putrescine dihydrochloride]
[1]
  % conversion: 39.89%
[2]
  inhibition at 20 µM: -10%

## NC(=O)c1cnccn1 [Pyrazinecarboxamide]
[1]
  % conversion: 32.31%

## CN(C)C(=O)Oc1ccc[n+](C)c1 [Pyridostigmine bromide]
  % conversion: 37.84%

## COc1ccc(CN(CCN(C)C)c2ccccn2)cc1 [Pyrilamine maleate]
[3]
  Plate 3 (% conversion): 36.13%

## Oc1ccccc1O [Pyrocatechol]
  Plate 1 (% conversion): 10.12%
LOPAC compound at fixed 20 uM
  Plate 1 (% inhibition): 76.68%

## C[C@@H]1C(=O)NC2=Nc3cccc(Cl)c3CN21 [Quazinone]
[1]
  % conversion: 40.20%
[2]
  inhibition at 20 µM: -10.9%

## CCN(CC)CCCC(C)Nc1c2ccc(Cl)cc2nc2ccc(OC)cc12 (stereo not drawn) [Quinacrine dihydrochloride]
[1]
  % conversion: 39.58%
[2]
  inhibition at 20 µM: -9.1%

## CCCN1CCC[C@@H]2Cc3nc(N)ncc3C[C@H]21.Cl.Cl [Quinelorane dihydrochloride]
[1]
  % conversion: 33.91%

## C=C[C@H]1C[N@@]2CC[C@H]1C[C@@H]2[C@@H](O)c1ccnc2ccc(OC)cc12 [Quinidine sulfate]
[1]
  % conversion: 33.25%

## C=C[C@H]1C[N@@]2CC[C@H]1C[C@H]2[C@H](O)c1ccnc2ccc(OC)cc12 [Quinine sulfate]
[1]
  % conversion: 30.14%

## O=C(O)c1cccnc1C(=O)O [Quinolinic acid]
[1]
  % conversion: 7.93%
[2]
  inhibition at 20 µM: 83.6%

## O=C(O)/C=C\C(=O)O.O=[N+]([O-])c1ccc2nc(N3CCNCC3)ccc2c1 [Quipazine, 6-nitro-, maleate]
[1]
  % conversion: 31.15%

## CCCN1CCC[C@H](c2cccc(O)c2)C1.Cl [R(+)-3PPP hydrochloride]
[5]
  % inhibition: 3.51%
[1]
  % conversion: 35.27%

## Br.C=CCN1CCc2c(cc(O)c(O)c2Br)[C@@H](c2ccccc2)C1 [R(+)-6-Bromo-APB hydrobromide, reference compound]
AspH activity, fixed compound concentration 20 μM, initial LOPAC screen, 0.5%v/v DMSO
  Inhibition at 20 µM [%]: 95.0%
LOPAC compound at fixed 20 uM
  Plate 1 (% inhibition): 95.00%
[6]
  Plate 1 (% conversion): 3.97%
